Assay results taken from PubChem BioAssay (NCI).
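1) Cells in 96-well plates. 2) Compound, 48 h, 5 concentrations. 3) Linear interpolation between surrounding doses. 4) Unreached endpoint = highest concentration. GI50 is the concentration that inhibits growth by half. TGI: concentration producing complete growth inhibition.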

Legend:
Assay in all cases: NCI tumour cell line growth inhibition, 48 h
SNB-75 CNS = test system: SNB-75 CNS
SF-295 CNS = test system: SF-295 CNS
786-0 renal = test system: 786-0 renal
DU-145 prostate = test system: DU-145 prostate
SNB-19 CNS = test system: SNB-19 CNS
LOX IMVI melanoma = test system: LOX IMVI melanoma
NCI/ADR-RES ovarian = test system: NCI/ADR-RES ovarian
HCT-116 colon = test system: HCT-116 colon
SR leukemia = test system: SR leukemia
MDA-MB-231 breast = test system: MDA-MB-231 breast

SMILES | GI50 (SNB-75 CNS) | TGI (SNB-75 CNS) | GI50 (SF-295 CNS) | TGI (SF-295 CNS) | GI50 (786-0 renal) | TGI (786-0 renal) | GI50 (DU-145 prostate) | TGI (DU-145 prostate) | GI50 (SNB-19 CNS) | TGI (SNB-19 CNS) | GI50 (LOX IMVI melanoma) | TGI (LOX IMVI melanoma) | GI50 (NCI/ADR-RES ovarian) | TGI (NCI/ADR-RES ovarian) | GI50 (HCT-116 colon) | TGI (HCT-116 colon) | GI50 (SR leukemia) | TGI (SR leukemia) | GI50 (MDA-MB-231 breast) | TGI (MDA-MB-231 breast)
O=C1c2ccccc2C(=O)N1c1ccc(S(=O)(=O)Nc2ncccn2)cc1 | > 100 µM | > 100 µM | > 100 µM | > 100 µM | > 100 µM | > 100 µM | > 100 µM | > 100 µM | > 100 µM | > 100 µM | > 100 µM | > 100 µM | > 100 µM | > 100 µM | > 100 µM | > 100 µM | > 100 µM | > 100 µM | > 100 µM | > 100 µM
CCOC(=O)CC1(O)C=CC(=O)C=C1 | 1.95 µg/mL | 4.38 µg/mL | 2.55 µg/mL | 5.07 µg/mL | 0.596 µg/mL | 2 µg/mL | 2.54 µg/mL | 7.75 µg/mL | 1.53 µg/mL | 5.05 µg/mL | 0.498 µg/mL | 1.68 µg/mL | 1.28 µg/mL | 6.57 µg/mL | 2.47 µg/mL | 5.44 µg/mL | 0.348 µg/mL | 1.18 µg/mL | 0.443 µg/mL | 1.31 µg/mL
COc1ccc2c(c1)c(C1(c3cn(C)c4ccc(OC)cc34)C(=O)Nc3ccc(F)cc31)cn2C | 3.09 µM | > 100 µM | 2.95 µM | 18.3 µM | 6.51 µM | > 100 µM | 11.5 µM | > 100 µM | 12.2 µM | > 100 µM | 4.45 µM | > 100 µM | 4.66 µM | > 100 µM | 3.84 µM | 15.3 µM | 5.59 µM | 82 µM | 2.89 µM | 18.6 µM
O=C1C=C(Nc2ccccc2C(=O)CC(=O)C(=O)Nc2cccc(C(F)(F)F)c2)c2ccccc2C1=O |  | > 96.9 µM |  | 53.7 µM |  | > 97.2 µM |  | > 100 µM |  | > 100 µM |  | 27.3 µM |  | 49.5 µM |  | 74.3 µM |  | > 94.7 µM |  | > 91.1 µM
COc1ccc(O)c(C(=O)c2ccc(C(=O)O[C@@H]3CCCNC[C@H]3NC(=O)c3ccncc3)cc2)c1F | 0.0788 µM | > 7.51 µM | 0.77 µM | > 25 µM | 0.403 µM | > 25 µM | 1.47 µM | > 25 µM | 1.9 µM | > 25 µM | 1.19 µM | > 25 µM | 1.87 µM | 24.2 µM | 1.04 µM | > 25 µM | 0.146 µM | > 5.21 µM | > 10.3 µM | > 25 µM
COc1cc(OC)c2c(=O)c(O)c(-c3ccc(OC)c(OC)c3)oc2c1 |  | > 100 µM |  | 38.1 µM |  | > 100 µM |  | > 100 µM |  | > 100 µM |  | > 100 µM |  | 17.5 µM |  | > 100 µM |  | 19.2 µM |  | > 100 µM
CO[C@@H]1[C@@H](OC2OC(C)C(OC3CC(C)(O)C(OC(=O)CC(C)C)C(C)O3)C(N(C)C)C2O)[C@@H](CC=O)C[C@@H](C)C(=O)/C=C/C2O[C@H]2C[C@@H](C)OC(=O)C[C@H]1OC(C)=O (stereo not given in full) |  | > 100 µM |  | 48.2 µM |  | 50.2 µM |  | 28 µM |  | 60.1 µM |  | 30.4 µM |  | 98.9 µM |  | 30.8 µM |  | 42.4 µM |  | 45.6 µM
